Results: patent US7649002B2, “(3,5-dimethylpiperidin-1yl)(4-phenylpyrrolidin-3-yl)methanone derivatives as MCR4 agonists” (Pfizer Inc, priority 2004, dated 2010)

What was measured:
human MCR3 receptor = molecular target: T1, human MCR3 receptor (Homo sapiens, UniProt P41968); experiment: MCR3 standard functional assay (Protocol B): cAMP AlphaScreen in HEK cells; format: cell-based; conditions: Table 5
T1 construct: expressed in transfected cells
Experimental: (§1) Stimulation of adenylate cyclase following receptor activation is a widely used measure of functional activity for a number of receptor systems. The functional assay to measure cyclic AMP (cAMP) utilises human embryonic kidney (HEK) cells that stably express the human melanocortin MCR1, MCR3 or MCR4 receptor. Activation of MCR1, MCR3 or MCR4 receptors stimulates adenylate cyclase, generating cAMP, which is measured using AlphaScreen™ (PerkinElmer assay kits.
(§2) The AlphaScreen™ cAMP assay kit consists of ‘donor beads’, ‘acceptor beads’, and biotinylated cAMP which links the different beads together. Excitation of this linked complex at […] in the Fusion™-α microplate analyser results in light emission between […].
(§3) (i) MCR1. MCR3 and MCR4 Standard Functional Assay Methodology [Assay Protocol A, B AND C Respectively]
(§4) Determination of activity against the human MCR1, MCR3 and MCR4 receptor subtypes was carried out for compounds according to the present invention using three immortalised human embryonic kidney (HEK) cell lines that had been biologically engineered to express the human melanocortin MCR1, MCR3 or MCR4 receptor subtypes. These cell lines were engineered using protocols akin to those outlined by Gouarderes et al (Gouarderes, C., (2002) Neuroscience, 115(2); 349-361).
(§5) Such-compound-induced activation of these MCR1, MCR3 or MCR4 receptors lead to the stimulation of the cellular enzyme adenylate cyclase, which in turn lead to the cellular generation, and intra-cellular accumulation, of cyclic adenosine monophosphate (cAMP). […] Intracellular levels of cAMP were quantified using the commercially available AlphaScreen™ assay kits from PerkinElmer. A detailed assay protocol and an explanation of the concept underlying this kit is available through the PerkinElmer website (www.perkinelmer.com). The protocol listed below provides a summary this information.
(§6) The quantity of intracellular cAMP produced by compound-induced activation of the MCR1, MCR3 and MCR4 receptors in these three cell lines was measured using a Fusion™-α microplate analyser set to stimulate at a wavelength of 680 nm and to measure the energy emitted at wave lengths between […]. Compound-induced increases in MCR1, MCR3 or MCR4 receptor activation were subsequently quantified as a decrease in the quantity of light emitted at wavelengths between […]. Data analysis was subsequently performed using a curve-fitting program and the apparent potency of the test compound (expressed as an EC50 and defined as the effective compound concentration that elicited 50% of the maximum compound-induced response) extrapolated from the fitted curve.
Stimulation buffer (as per AlphaScreen™ protocol): HBSS supplemented with 0.5 mM IBMX, 5 mM HEPES, 0.1% (w/v) BSA and 10 mM MgCl2.
Lysis buffer (as per AlphaScreen™ protocol): 5 mM HEPES solution supplemented with 0.1% (w/v) BSA and 0.3% (v/v) Tween-20.
Detection mix (as per AlphaScreen™ protocol): Lysis buffer supplemented with the biotinylated cAMP (10 nM) and Donor beads (10 μg/ml) as supplied in the AlphaScreenT cAMP assay kit.
For the MCR1, MCR3 and MCR4 standard functional assay methodologies compounds were initially dissolved in DMSO to give a compound concentration of 4 mM and then further diluted for the assay in stimulation buffer to give actual concentrations 2-fold greater than that desired as the final assay concentration.
The three HEK cell lines, as detailed hereinbefore, expressing the human MCR1, MCR3 or MCR4 receptor subtypes were grown in T225 vent cap flasks containing 50 ml of growth medium (DMEM supplemented with 10% (v/v) FCS, 2 mM L-Glutamine, 25 mM HEPES and 1.0 mg/ml Geneticin) and maintained in a cell incubator at a temperature of 37° C. and in an environment containing 5% CO2. Cells were harvested when they reached 80-90% confluency by first removing the existing growth medium and then washing with PBS that had been pre-warmed to a temperature of 37° C. […]

human MCR4 receptor = molecular target: T2, human MCR4 receptor (Homo sapiens, UniProt P32245); experiment: MCR4 standard functional assay (Protocol C): cAMP AlphaScreen in HEK cells; format: cell-based; conditions: Table 5
T2 construct: expressed in transfected cells
Experimental: as §1, §2, §3, §4, §5, §6
Stimulation buffer (as per AlphaScreen™ protocol): HBSS supplemented with 0.5 mM IBMX, 5 mM HEPES, 0.1% (w/v) BSA and 10 mM MgCl2. […]

T1 sequence (P41968 whole entry): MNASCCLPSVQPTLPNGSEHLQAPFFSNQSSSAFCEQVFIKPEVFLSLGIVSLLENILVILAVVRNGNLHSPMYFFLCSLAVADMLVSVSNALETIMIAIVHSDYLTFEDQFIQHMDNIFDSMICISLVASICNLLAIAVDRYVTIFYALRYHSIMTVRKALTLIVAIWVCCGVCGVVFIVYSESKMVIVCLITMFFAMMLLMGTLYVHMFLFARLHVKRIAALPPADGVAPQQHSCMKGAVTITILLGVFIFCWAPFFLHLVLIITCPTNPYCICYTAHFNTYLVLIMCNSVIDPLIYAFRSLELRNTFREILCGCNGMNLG
T2 sequence (P32245 whole entry): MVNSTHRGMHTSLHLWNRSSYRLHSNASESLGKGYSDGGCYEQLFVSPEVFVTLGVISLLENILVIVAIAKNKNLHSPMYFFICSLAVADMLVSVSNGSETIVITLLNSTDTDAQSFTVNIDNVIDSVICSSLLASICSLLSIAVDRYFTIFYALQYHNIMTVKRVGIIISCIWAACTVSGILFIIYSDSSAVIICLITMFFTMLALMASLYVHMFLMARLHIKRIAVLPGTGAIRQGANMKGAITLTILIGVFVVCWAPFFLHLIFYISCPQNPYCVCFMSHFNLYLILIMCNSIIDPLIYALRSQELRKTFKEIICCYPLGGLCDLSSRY

**Q.** Which “Selectivity MCR3/MCR4” value (human MCR3 receptor; MCR4 by Protocol C) does the source give for `CCCC[C@@]1(O)[C@H](C)CN(C(=O)[C@@H]2CN(C(C)(C)C)C[C@H]2c2ccc(F)cc2F)C[C@@H]1C` [Example 3, (3R,4R,5S)-4-Butyl-1-{[(3S,4R)-1-tert-butyl-4-(2,4-difluorophenyl)pyrrolidin-3-yl]carbonyl}-3,5-dimethylpiperidin-4-ol] here?
**A.** Its value is 60.

**Q.** What about the EC50 (human MCR3 receptor; Protocol B) of the same compound?
**A.** Its EC50 is 2620 nM.

**Q.** And the EC50 (human MCR4 receptor)?
**A.** The EC50 was 44 nM.
